Experimental data published in paper PMC6496074, “The Evolution of Azole Resistance in Candida albicans Sterol 14α-Demethylase (CYP51) through Incremental Amino Acid Substitutions” (Antimicrobial Agents and Chemotherapy, 2019).
“And” between values parts separate entries of the source, which are not always exact repeats. Identical values can stand only once.

Key:
[1] = biological target: T1, CaCYP51 D278N (Candida albicans, UniProt P10613, D278N); experiment: Azole ligand binding (type II difference spectra); conditions: 4 μM protein, 22°C, ± standard deviation, triplicate, read-out: dissociation constant (Kd)
T1 construct: made in house; host or cells: E. coli DH5α (pCWori+)
T1 sequence (P10613 whole entry, looked up, stated change not applied): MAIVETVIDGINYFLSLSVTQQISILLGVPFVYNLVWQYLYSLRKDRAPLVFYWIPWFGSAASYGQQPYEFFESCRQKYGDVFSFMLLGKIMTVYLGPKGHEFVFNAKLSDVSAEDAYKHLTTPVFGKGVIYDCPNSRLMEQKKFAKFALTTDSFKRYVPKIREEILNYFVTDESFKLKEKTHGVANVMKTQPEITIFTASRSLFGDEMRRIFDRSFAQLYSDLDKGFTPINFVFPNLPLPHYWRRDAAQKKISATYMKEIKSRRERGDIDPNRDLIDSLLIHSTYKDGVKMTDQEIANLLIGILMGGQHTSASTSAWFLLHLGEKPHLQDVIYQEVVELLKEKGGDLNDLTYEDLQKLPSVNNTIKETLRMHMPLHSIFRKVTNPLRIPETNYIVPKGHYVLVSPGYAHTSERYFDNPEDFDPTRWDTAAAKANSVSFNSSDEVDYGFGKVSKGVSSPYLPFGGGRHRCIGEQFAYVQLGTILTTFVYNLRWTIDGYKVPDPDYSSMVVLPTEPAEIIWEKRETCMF
Protocol: (§1) Studies of azole antifungal binding to 4 μM CaCYP51 proteins were performed as previously described ([53]) using quartz split cuvettes with a 4.5-mm light path. […] Azole antifungals were progressively titrated against the CaCYP51 proteins in 0.1 M Tris-HCl (pH 8.1) and 25% glycerol at 22°C, with equivalent volumes of dimethyl sulfoxide also being added to the CYP51-containing compartment of the reference cuvette. The absorbance difference spectra between 500 and 350 nm were determined after each incremental addition of azole, with binding saturation curves constructed from the change in the peak and trough absorbance (ΔApeak-trough) against the azole concentration. The dissociation constant (Kd) of the enzyme-azole complex for each azole was determined by nonlinear regression (Levenberg-Marquardt algorithm) using a rearrangement of the Morrison equation for tight ligand binding ([54], [55]). Tight binding is normally observed when the Kd for a ligand is similar to or lower than the concentration of the enzyme present ([56]). Where ligand binding was weak, the Michaelis-Menten equation was used to fit the data. Each binding determination was performed in triplicate. The chemical structures of the azole antifungals used in this study are shown in Fig. S5 in the supplemental material.

[2] = biological target: T2, CaCYP51 G307S+G450E (Candida albicans, UniProt P10613, G307S/G450E); experiment: Azole ligand binding (type II difference spectra)
T2 construct: made in house; host or cells: E. coli DH5α (pCWori+)
T2 sequence (P10613 whole entry, looked up, stated change not applied): as above
Protocol: as §1

[3] = biological target: T3, CaCYP51 G307S (Candida albicans, UniProt P10613, G307S); experiment: Azole ligand binding (type II difference spectra); conditions: 4 μM protein, 22°C, ± standard deviation, triplicate, read-out: dissociation constant (Kd)
T3 construct: made in house; host or cells: E. coli DH5α (pCWori+)
T3 sequence (P10613 whole entry, looked up, stated change not applied): as above
Protocol: as §1

[4] = biological target: T4, CaCYP51 S279F (Candida albicans, UniProt P10613, S279F); experiment: Azole ligand binding (type II difference spectra); conditions: 4 μM protein, 22°C, ± standard deviation, triplicate, read-out: dissociation constant (Kd)
T4 construct: made in house; host or cells: E. coli DH5α (pCWori+)
T4 sequence (P10613 whole entry, looked up, stated change not applied): as above
Protocol: as §1

[5] = biological target: T5, CaCYP51 Y132F+F145L (Candida albicans, UniProt P10613, F145L/Y132F); experiment: Azole ligand binding (type II difference spectra)
T5 construct: made in house; host or cells: E. coli DH5α (pCWori+)
T5 sequence (P10613 whole entry, looked up, stated change not applied): as above
Protocol: as §1

[6] = biological target: T6, CaCYP51 D278N+G464S (Candida albicans, UniProt P10613, D278N/G464S); experiment: Azole ligand binding (type II difference spectra)
T6 construct: made in house; host or cells: E. coli DH5α (pCWori+)
T6 sequence (P10613 whole entry, looked up, stated change not applied): as above
Protocol: as §1

[7] = biological target: T7, CaCYP51 Y132F+K143R (Candida albicans, UniProt P10613, K143R/Y132F); experiment: Azole ligand binding (type II difference spectra)
T7 construct: made in house; host or cells: E. coli DH5α (pCWori+)
T7 sequence (P10613 whole entry, looked up, stated change not applied): as above
Protocol: as §1

[8] = biological target: T8, CaCYP51 K143R (Candida albicans, UniProt P10613, K143R); experiment: Azole ligand binding (type II difference spectra); conditions: 4 μM protein, 22°C, ± standard deviation, triplicate, read-out: dissociation constant (Kd)
T8 construct: made in house; host or cells: E. coli DH5α (pCWori+)
T8 sequence (P10613 whole entry, looked up, stated change not applied): as above
Protocol: as §1

[9] = test system: CaCYP51 Y132F+K143R; experiment: CYP51 reconstitution assay; type: biochemical, Candida albicans; conditions: Y132F+K143R
Protocol: (§2) Azole antifungal agents were added in 2.5 μl dimethyl sulfoxide, followed by 10 min of incubation at 37°C prior to assay initiation with 4 mM β-NADPH-Na4. The samples were then shaken for 15 min at 37°C. Sterol metabolites were recovered by extraction with ethyl acetate, followed by derivatization with 0.1 ml N,O-bis(trimethylsilyl)trifluoroacetamide (BSTFA)–trimethylchlorosilane (TMCS) (99:1) and 0.3 ml anhydrous pyridine (2 h at 80°C), prior to analysis by gas chromatography-mass spectrometry (GC-MS) ([52]). IC50 determinations were performed in duplicate.

[10] = test system: CaCYP51 Y132F+F145L; experiment: CYP51 reconstitution assay; type: biochemical, Candida albicans; conditions: Y132F+F145L
Protocol: as §2

[11] = biological target: T7, CaCYP51 Y132F+K143R; experiment: CYP51 reconstitution assay; type: biochemical; conditions: for remaining activity at 4 µM: 0.25 h, read-out: Residual CYP51 activity (%) ± SD
Protocol: as §2

[12] = biological target: CaCYP51 proteins with amino acid substitutions; experiment: CYP51 reconstitution assay, span over several CaCYP51 proteins; type: biochemical, Candida albicans
Protocol: as §2

[13] = 4 μM protein, 22°C, ± standard deviation, triplicate, read-out: dissociation constant (Kd)

## OC(Cn1cncn1)(Cn1cncn1)c1ccc(F)cc1F [Fluconazole, fluconazole]
[1]
  Kd: 120 ± 35 nM
[2]
  Kd, fold higher than wild-type enzyme: 3 fold
[2]; [13]
  Kd: 158 ± 38 nM
[3]
  Kd: 133 ± 13 nM
[4]
  Kd: 232 ± 36 nM
[5]
  Kd: 202 ± 57 nM
[5]; Y132F+F145L
  Kd, fold higher than wild-type enzyme: 4 fold
[6]
  apparent Kd, fold lower than wild-type enzyme: 3 fold
[6]; [13]
  Kd: 15 ± 9 nM
[7]
  Kd: 15600 nM
[7]; Y132F+K143R
  Kd, fold larger than wild-type enzyme: 312 fold
[8]
  Kd: 118 ± 24 nM
[9]
  fold increase in IC50 over wild-type enzyme: 15 fold and 15.3 fold
[10]
  fold increase in IC50 over wild-type enzyme: 10 fold and 10.1 fold
[11]
  IC50: 5860 ± 524 nM
  remaining activity at 4 µM: 62 ± 1.21%

## CCC(C)n1ncn(-c2ccc(N3CCN(c4ccc(OCC5COC(Cn6cncn6)(c6ccc(Cl)cc6Cl)O5)cc4)CC3)cc2)c1=O (stereo not shown) [Itraconazole, itraconazole]
[7]
  Kd: 127 ± 33 nM
[12]; none of the substituted CaCYP51 proteins greater than this
  IC50 relative to that of the wild-type enzyme: ≤ 1.6 fold
[11]
  IC50: 190 ± 2 nM
  remaining activity at 4 µM: 0.23 ± 0.13%

## CC[C@@H]([C@H](C)O)n1ncn(-c2ccc(N3CCN(c4ccc(OC[C@@H]5CO[C@@](Cn6cncn6)(c6ccc(F)cc6F)C5)cc4)CC3)cc2)c1=O [Posaconazole, posaconazole]
[10]
  fold increase in IC50 over wild-type enzyme: 2.2 fold
[11]
  IC50: 246 ± 24 nM
  remaining activity at 4 µM: 0.86 ± 0.11%

## C[C@@H](c1ncncc1F)[C@](O)(Cn1cncn1)c1ccc(F)cc1F [Voriconazole, voriconazole]
[12]; 4 μM voriconazole, K143R, S279F, G450E, Y132F+K143R, Y132H+K143R, Y132F+F145L, D278N+G464S
  Residual CYP51 activity, span over proteins: over 3%
[11]
  remaining activity at 4 µM: 8.86 ± 1.09%
